Drawing on US20240124417A1, “COMPOUNDS USEFUL AS IMMUNOMODULATORS” (Bristol-Myers Squibb Company, priority 2019, published 2024), this text covers IC50 for 21 molecules.

Structures are written as SMILES.

The target of the experiment is T1, PD-1/PD-L1 (Homo sapiens, UniProt Q9NZQ7).
T1 construct: TVMV protease site linker (C); made in house; host or cells: HEK293T cells
The experiment can be described thus: PD-1/PD-L1 Homogenous Time-Resolved Fluorescence (HTRF) binding assay. The following applies: PD-L1-His 10 nM, PD-1-Ig 20 nM. In short, it runs like this: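 Inhibitors pre-incubated 15 min with PD-L1-His extracellular domain (10 nM final) in dPBS with 0.1% BSA and 0.05% Tween-20, then PD-1-Ig (20 nM final) added for a further 15 min. Read-out by HTRF with europium cryptate anti-Ig (1 nM) and APC anti-His (20 nM). Related pairs: PD-1-Ig/PD-L2-His (20/5 nM), CD80-His/PD-L1-Ig (100/10 nM).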

T1 sequence (Q9NZQ7 18-239): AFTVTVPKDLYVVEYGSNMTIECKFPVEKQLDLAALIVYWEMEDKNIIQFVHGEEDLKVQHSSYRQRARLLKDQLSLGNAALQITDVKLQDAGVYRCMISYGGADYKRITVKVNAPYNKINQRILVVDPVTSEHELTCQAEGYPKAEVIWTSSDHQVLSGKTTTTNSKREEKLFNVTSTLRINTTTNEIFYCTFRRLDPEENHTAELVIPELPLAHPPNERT

The term IC50 denotes the concentration that inhibits the measured activity by half. Read a low IC50 as inhibition by little substance. The molecule `Cc1c(COc2cc(OCc3cnccn3)c(CNCc3cccnn3)cc2Cl)cccc1-c1cccc(OCC2CCCN(C)C2)c1Cl` (stereo not drawn) [Example 2058, N-(5-chloro-4-((2′-chloro-2-methyl-3′-((1-methylpiperidin-3-yl)methoxy)-[1,1′-biphenyl]-3-yl)methoxy)-2-(pyrazin-2-ylmethoxy)benzyl)-1-(pyridazin-3-yl)methanamine] came in with a half-inhibitory concentration (IC50) of 3.9 nM.
For `Cc1c(COc2cc(OCc3cnccn3)c(CNCc3ncccn3)cc2Cl)cccc1-c1cccc(OCC2CCCN(C)C2)c1Cl` (stereo not drawn) [Example 2059, N-(5-chloro-4-((2′-chloro-2-methyl-3′-((1-methylpiperidin-3-yl)methoxy)-[1,1′-biphenyl]-3-yl)methoxy)-2-(pyrazin-2-ylmethoxy)benzyl)-1-(pyrimidin-2-yl)methanamine] the value was 4.4 nM; for `Cc1c(COc2cc(OCc3cnccn3)c(CNCc3c[nH]cn3)cc2Cl)cccc1-c1cccc(OCC2CCCN(C)C2)c1Cl` (stereo not drawn) [Example 2060, N-((1H-imidazol-4-yl)methyl)-1-(5-chloro-4-((2′-chloro-2-methyl-3′-((1-methylpiperidin-3-yl)methoxy)-[1,1′-biphenyl]-3-yl)methoxy)-2-(pyrazin-2-ylmethoxy)phenyl)methanamine], 1.9 nM.
As to `Cc1c(COc2cc(OCc3cncc(C#N)c3)c(CNCc3cccnn3)cc2Cl)cccc1-c1cccc(OCc2cncnc2)c1Cl` [Example 2061, 5-((4-chloro-5-((2′-chloro-2-methyl-3′-(pyrimidin-5-ylmethoxy)-[1,1′-biphenyl]-3-yl)methoxy)-2-(((pyridazin-3-ylmethyl)amino)methyl)phenoxy)methyl)nicotinonitrile], the IC50 is 16.9 nM.
For `Cc1c(COc2cc(OCc3cncc(C#N)c3)c(CNCc3c[nH]cn3)cc2Cl)cccc1-c1cccc(OCc2cncnc2)c1Cl` [Example 2062, 5-((2-((((1H-imidazol-4-yl)methyl)amino)methyl)-4-chloro-5-((2′-chloro-2-methyl-3′-(pyrimidin-5-ylmethoxy)-[1,1′-biphenyl]-3-yl)methoxy)phenoxy)methyl)nicotinonitrile] the value was 7.6 nM; for `Cc1c(COc2cc(OCc3cncc(C#N)c3)c(CNCc3ncccn3)cc2Cl)cccc1-c1cccc(OCc2cncnc2)c1Cl` [Example 2063, 5-((4-chloro-5-((2′-chloro-2-methyl-3′-(pyrimidin-5-ylmethoxy)-[1,1′-biphenyl]-3-yl)methoxy)-2-(((pyrimidin-2-ylmethyl)amino)methyl)phenoxy)methyl)nicotinonitrile], 28.5 nM.
For `Cc1c(COc2cc(OCc3cncc(C#N)c3)c(CNCc3cccnn3)cc2Cl)cccc1-c1cccc(OCC2CCCN(CCC(F)(F)F)C2)c1Cl` (stereo not drawn) [Example 2064, 5-((4-chloro-5-((2′-chloro-2-methyl-3′-((1-(3,3,3-trifluoropropyl)piperidin-3-yl)methoxy)-[1,1′-biphenyl]-3-yl)methoxy)-2-(((pyridazin-3-ylmethyl)amino)methyl)phenoxy)methyl)nicotinonitrile] the value was 179 nM; for `Cc1c(COc2cc(OCc3cncc(C#N)c3)c(CNCc3c[nH]cn3)cc2Cl)cccc1-c1cccc(OCC2CCCN(CCC(F)(F)F)C2)c1Cl` (stereo not drawn) [Example 2065, 5-((2-((((1H-imidazol-4-yl)methyl)amino)methyl)-4-chloro-5-((2′-chloro-2-methyl-3′-((1-(3,3,3-trifluoropropyl)piperidin-3-yl)methoxy)-[1,1′-biphenyl]-3-yl)methoxy)phenoxy)methyl)nicotinonitrile], 28 nM.
The result for `Cc1c(COc2cc(OCc3cncc(C#N)c3)c(CNCc3ncccn3)cc2Cl)cccc1-c1cccc(OCC2CCCN(CCC(F)(F)F)C2)c1Cl` (stereo not drawn) [Example 2066, 5-((4-chloro-5-((2′-chloro-2-methyl-3′-((1-(3,3,3-trifluoropropyl)piperidin-3-yl)methoxy)-[1,1′-biphenyl]-3-yl)methoxy)-2-(((pyrimidin-2-ylmethyl)amino)methyl)phenoxy)methyl)nicotinonitrile] reads 75.9 nM.
Turning to `Cc1c(COc2cc(OCc3cncc(C#N)c3)c(CNCc3cn[nH]n3)cc2Cl)cccc1-c1cccc(OCC2CCCN(CCC(F)(F)F)C2)c1Cl` (stereo not drawn) [Example 2068, 5-((2-((((2H-1,2,3-triazol-4-yl)methyl)amino)methyl)-4-chloro-5-((2′-chloro-2-methyl-3′-((1-(3,3,3-trifluoropropyl)piperidin-3-yl)methoxy)-[1,1′-biphenyl]-3-yl)methoxy)phenoxy)methyl)nicotinonitrile], the IC50 amounted to 89.6 nM.
The result for `Cc1c(COc2cc(OCc3cncc(C#N)c3)c(CN(C)Cc3cccnc3)cc2Cl)cccc1-c1cccc(OCCCN2CC[C@@H](O)C2)c1C` [Example 2501, (R)-5-((4-chloro-5-((3′-(3-(3-hydroxypyrrolidin-1-yl)propoxy)-2,2′-dimethyl-[1,1′-biphenyl]-3-yl)methoxy)-2-((methyl(pyridin-3-ylmethyl)amino)methyl)phenoxy)methyl)nicotinonitrile] reads 2.3 nM; that for `Cc1c(COc2cc(OCc3cncc(C#N)c3)c(CN3CCc4c(ncn4C)C3)cc2Cl)cccc1-c1cccc(OCCCN2CC[C@@H](O)C2)c1C` [Example 2502], 0.9 nM.
For `Cc1nc2c(s1)CN(Cc1cc(Cl)c(OCc3cccc(-c4cccc(OCCCN5CC[C@@H](O)C5)c4C)c3C)cc1OCc1cncc(C#N)c1)CC2` [Example 2503, (R)-5-((4-chloro-5-((3′-(3-(3-hydroxypyrrolidin-1-yl)propoxy)-2,2′-dimethyl-[1,1′-biphenyl]-3-yl)methoxy)-2-((2-methyl-6,7-dihydrothiazolo[5,4-c]pyridin-5(4H)yl)methyl)phenoxy)methyl)nicotinonitrile] the value was 3.9 nM; for `Cc1ncsc1CCNCc1cc(Cl)c(OCc2cccc(-c3cccc(OCCCN4CC[C@@H](O)C4)c3C)c2C)cc1OCc1cncc(C#N)c1` [Example 2504, (R)-5-((4-chloro-5-((3′-(3-(3-hydroxypyrrolidin-1-yl)propoxy)-2,2′-dimethyl-[1,1′-biphenyl]-3-yl)methoxy)-2-(((2-(4-methylthiazol-5-yl)ethyl)amino)methyl)phenoxy)methyl)nicotinonitrile], 1.8 nM.
For `Cc1c(COc2cc(OCc3cncc(C#N)c3)c(CNCCc3nc4ccccc4[nH]3)cc2Cl)cccc1-c1cccc(OCCCN2CC[C@@H](O)C2)c1C` [Example 2505, (R)-5-((2-(((2-(1H-benzo[d]imidazol-2-yl)ethyl)amino)methyl)-4-chloro-5-((3′-(3-(3 hydroxypyrrolidin-1-yl)propoxy)-2,2′-dimethyl-[1,1′-biphenyl]-3yl)methoxy)phenoxy)methyl)nicotinonitrile] the value was 6.7 nM; for `Cc1c(COc2cc(OCc3cncc(C#N)c3)c(CNCCc3cscn3)cc2Cl)cccc1-c1cccc(OCCCN2CC[C@@H](O)C2)c1C` [Example 2506, (R)-5-((4-chloro-5-((3′-(3-(3-hydroxypyrrolidin-1-yl)propoxy)-2,2′-dimethyl-[1,1′-biphenyl]-3-yl)methoxy)-2-(((2-(thiazol-4-yl)ethyl)amino)methyl)phenoxy)methyl)nicotinonitrile], 0.4 nM; for `Cc1c(COc2cc(OCc3cncc(C#N)c3)c(CN(C)CCc3cscn3)cc2Cl)cccc1-c1cccc(OCCCN2CC[C@@H](O)C2)c1C` [Example 2507, (R)-5-((4-chloro-5-((3′-(3-(3-hydroxypyrrolidin-1-yl)propoxy)-2,2′-dimethyl-[1,1′-biphenyl]-3-yl)methoxy)-2-((methyl(2-(thiazol-4-yl)ethyl)amino)methyl)phenoxy)methyl)nicotinonitrile], 1.7 nM.
In turn, `Cc1c(COc2cc(OCc3cncc(C#N)c3)c(CN(C)CCc3nc4ccccc4[nH]3)cc2Cl)cccc1-c1cccc(OCCCN2CC[C@@H](O)C2)c1C` [Example 2508, (R)-5-((2-(((2-(1H-benzo[d]imidazol-2-yl)ethyl)(methyl)amino)methyl)-4-chloro-5-((3′-(3-(3-hydroxypyrrolidin-1-yl)propoxy)-2,2′-dimethyl-[1,1′-biphenyl]-3-yl)methoxy)phenoxy)methyl)nicotinonitrile] gave an IC50 of 6.2 nM.
The result for `Cc1c(COc2cc(OCc3cncc(C#N)c3)c(CN(C)CCc3ncn[nH]3)cc2Cl)cccc1-c1cccc(OCCCN2CC[C@@H](O)C2)c1C` [Example 2509, (R)-5-((2-(((2-(1H-1,2,4-triazol-5-yl)ethyl)(methyl)amino)methyl)-4-chloro-5-((3′-(3-(3-hydroxypyrrolidin-1-yl)propoxy)-2,2′-dimethyl-[1,1′-biphenyl]-3-yl)methoxy)phenoxy)methyl)nicotinonitrile] reads 0.2 nM; that for `Cc1c(COc2cc(OCc3cncc(C#N)c3)c(CN(C)CCc3nc4ccccc4n3C)cc2Cl)cccc1-c1cccc(OCCCN2CC[C@@H](O)C2)c1C` [Example 2510, (R)-5-((4-chloro-5-((3′-(3-(3-hydroxypyrrolidin-1-yl)propoxy)-2,2′-dimethyl-[1,1′-biphenyl]-3-yl)methoxy)-2-((methyl(2-(1-methyl-1H-benzo[d]imidazol-2-yl)ethyl)amino)methyl)phenoxy)methyl)nicotinonitrile], 3.3 nM; that for `Cc1ncsc1CCN(C)Cc1cc(Cl)c(OCc2cccc(-c3cccc(OCCCN4CC[C@@H](O)C4)c3C)c2C)cc1OCc1cncc(C#N)c1` [Example 2511, (R)-5-((4-chloro-5-((3′-(3-(3-hydroxypyrrolidin-1-yl)propoxy)-2,2′-dimethyl-[1,1′-biphenyl]-3-yl)methoxy)-2-((methyl(2-(4-methylthiazol-5-yl)ethyl)amino)methyl)phenoxy)methyl)nicotinonitrile], 3.3 nM.
